One experiment relates to L02. The experiment can be described thus: Cytotoxicity against human L02 cells by SRB assay. Type of experiment: cell-based. A general note: The SRB assay estimates cell density from bound dye.
Experiment [1] can be described thus: Cytotoxicity against human NCI-H69AR cells by SRB assay. Type of experiment: functional, cell-based.
The test system of another experiment is K562. The experiment can be described thus: Cytotoxicity against human K562 cells by MTT assay. Type of experiment: functional, cell-based.
In another experiment the test system is MDA-MB-231. As to the kind of experiment: Cytotoxicity against human MDA-MB-231 cells by SRB assay. Type of experiment: functional, cell-based.
For a further experiment, the system named is ASPC1. As to the kind of experiment: Cytotoxicity against human ASPC1 cells by SRB assay. Type of experiment: functional, cell-based.

SMILES strings stand for the structures.

Broadly, the IC50 is the concentration that inhibits the measured activity by half. A lower IC50 goes with greater potency in that assay.

In the case of `COC(=O)Cc1cc(CC/C=C(\C)CC/C=C(\C)CCC=C(C)C)ccc1O`, the IC50 is over 30 µM with L02; over 30 µM in experiment [1]; 15 µM in the experiment on K562; over 30 µM with MDA-MB-231; over 30 µM in the experiment on ASPC1.

Regarding `COc1cccc2c1C(=O)c1c(O)c3c(c(O)c1C2=O)C[C@@](O)(C(=O)CO)C[C@@H]3O[C@H]1C[C@H](N)[C@H](O)[C@H](C)O1` [DOXORUBICIN], the IC50 (in the experiment with L02; in experiment [1]; in the experiment with K562; in the experiment on MDA-MB-231; with ASPC1) was under 1 µM each time.

These data come from ChEMBL document CHEMBL4813930, “Cytotoxic Manoalide-Type Sesterterpenes from the Sponge Luffariella variabilis Collected in the South China Sea” (J Nat Prod, 2021).
